We go through 5 compounds from PubChem BioAssay (NCI).

What all share (assay): NCI-60 cell line screen, 48 h
Experiment [1] relates to DMS 114 small cell lung.
Experiment [2] has as its system DMS 273 small cell lung.
Experiment [3] relates to KM20L2 colon.
Experiment [4] concerns RXF-631 renal.

Structures are written as SMILES.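 How tested: cells in 96-well plates exposed to compound for 48 hours at five concentrations. At the TGI there is no net growth.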

With `CCOC(=O)C(=O)NCCCN1CCOCC1`, the TGI in experiment [1], in experiment [2], in experiment [3] and in experiment [4] was over 100 µM in each case.

Regarding `COc1ccc(C2c3cc4c(cc3OC(O)(CO)C2C(=O)O)OCO4)cc1` (stereo not given) (tested in a mixture with another compound), the TGI was 61.3 µM in experiment [1], 17.7 µM in experiment [2], over 100 µM in experiment [3] and 42.9 µM in experiment [4].

`Cc1ccccc1NC(=O)CC(=O)N1N=C(N2c3ccccc3Sc3ccccc32)CC1c1ccccc1` (stereo not given): the TGI in experiment [1], in experiment [2], in experiment [3] and in experiment [4] was over 100 µM each time.

Turning to `COC1CC(CC2CCC(C)C(C(C)C(=O)O)O2)OC2(OC(C)(C3CCC(C)(C4OC(C5OC(O)(CO)C(C)CC5C)CC4C)O3)CC2C)C1C` (stereo not given), the TGI in experiment [1] amounted to 1.03 µM; in experiment [2], 10.4 µM; in experiment [3] it was 11 µM; in experiment [4] it was 12.9 µM.

Turning to `CC(=O)Oc1ccc(CO)cc1OC(C)=O`, the TGI in experiment [1], in experiment [2], in experiment [3] and in experiment [4] was over 100 µM in each case.
